Test results reported in PubChem BioAssay (NCI).
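48-hour exposure; five concentrations; linearly interpolated endpoints. TGI is the concentration that stops growth completely.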 Where a SMILES comes first, the peptide text is derived from it. [ ]: non-standard residue; d: D form. The star is where a group is joined. Iva = CC[C](C)(N)C(=O)O; Boc = CC(C)(C)OC(=O)*; X52 = C1CCC(=NO*)C1

What was measured:
Test in all cases: NCI anticancer screen, dose series, 48 h
SK-MEL-2 melanoma = system: SK-MEL-2 melanoma
U251 CNS = system: U251 CNS
OVCAR-5 ovarian = system: OVCAR-5 ovarian
KM12 colon = system: KM12 colon
UACC-257 melanoma = system: UACC-257 melanoma
HT29 colon = system: HT29 colon
HCT-116 colon = system: HCT-116 colon
HOP-62 NSCLC = system: HOP-62 NSCLC
RPMI-8226 leukemia = system: RPMI-8226 leukemia
HOP-92 NSCLC = system: HOP-92 NSCLC
NCI/ADR-RES ovarian = system: NCI/ADR-RES ovarian
NCI-H226 lung = system: NCI-H226 lung
CAKI-1 renal = system: CAKI-1 renal
SN12C renal = system: SN12C renal
SNB-19 CNS = system: SNB-19 CNS
SF-295 CNS = system: SF-295 CNS
MCF7 breast = system: MCF7 breast
SK-MEL-28 melanoma = system: SK-MEL-28 melanoma
NCI-H23 lung = system: NCI-H23 lung
OVCAR-4 ovarian = system: OVCAR-4 ovarian

SMILES: COc1ccc(-c2c3c(cc4cc5c(cc24)OCO5)C(=O)OC3)cc1OC
- TGI (SK-MEL-2 melanoma): 4.91 µM
- TGI (U251 CNS): 22 µM
- TGI (OVCAR-5 ovarian): > 100 µM
- TGI (KM12 colon): > 36 µM
- TGI (UACC-257 melanoma): 5.05 µM
- TGI (HT29 colon): 6.55 µM
- TGI (HCT-116 colon): 12.1 µM
- TGI (HOP-62 NSCLC): 7.16 µM
- TGI (RPMI-8226 leukemia): 9.98 µM
- TGI (HOP-92 NSCLC): > 23.4 µM
- TGI (NCI/ADR-RES ovarian): 22.4 µM
- TGI (NCI-H226 lung): 12.4 µM
- TGI (CAKI-1 renal): > 63.4 µM
- TGI (SN12C renal): > 53.1 µM
- TGI (SNB-19 CNS): 52 µM
- TGI (SF-295 CNS): 0.922 µM
- TGI (MCF7 breast): 31.4 µM
- TGI (SK-MEL-28 melanoma): 9.38 µM
- TGI (NCI-H23 lung): 26.5 µM
- TGI (OVCAR-4 ovarian): > 100 µM

SMILES: CC(C)OP(=O)(OC(C)C)c1nc(-c2ccccc2)n(-c2ccc([N+](=O)[O-])cc2)n1
- TGI (SK-MEL-2 melanoma): > 100 µM
- TGI (U251 CNS): > 100 µM
- TGI (OVCAR-5 ovarian): > 100 µM
- TGI (KM12 colon): > 100 µM
- TGI (UACC-257 melanoma): > 100 µM
- TGI (HT29 colon): > 100 µM
- TGI (HCT-116 colon): > 100 µM
- TGI (HOP-62 NSCLC): > 100 µM
- TGI (RPMI-8226 leukemia): > 100 µM
- TGI (HOP-92 NSCLC): > 100 µM
- TGI (NCI-H226 lung): > 100 µM
- TGI (CAKI-1 renal): > 100 µM
- TGI (SN12C renal): > 100 µM
- TGI (SNB-19 CNS): > 100 µM
- TGI (SF-295 CNS): > 100 µM
- TGI (SK-MEL-28 melanoma): > 100 µM
- TGI (NCI-H23 lung): > 100 µM
- TGI (OVCAR-4 ovarian): > 100 µM

SMILES: O=[N+]([O-])c1ccc(N=Nc2c(O)ccc3ccccc23)c([N+](=O)[O-])c1
- TGI (SK-MEL-2 melanoma): > 100 µM
- TGI (U251 CNS): > 100 µM
- TGI (OVCAR-5 ovarian): > 100 µM
- TGI (KM12 colon): > 100 µM
- TGI (UACC-257 melanoma): > 100 µM
- TGI (HT29 colon): > 100 µM
- TGI (HCT-116 colon): > 100 µM
- TGI (HOP-62 NSCLC): > 100 µM
- TGI (RPMI-8226 leukemia): > 100 µM
- TGI (HOP-92 NSCLC): > 100 µM
- TGI (NCI/ADR-RES ovarian): > 100 µM
- TGI (NCI-H226 lung): > 100 µM
- TGI (CAKI-1 renal): > 100 µM
- TGI (SN12C renal): > 100 µM
- TGI (SNB-19 CNS): > 100 µM
- TGI (SF-295 CNS): > 100 µM
- TGI (MCF7 breast): > 100 µM
- TGI (SK-MEL-28 melanoma): > 100 µM
- TGI (NCI-H23 lung): > 100 µM
- TGI (OVCAR-4 ovarian): > 100 µM

SMILES: CCCC[C@H]1[C@@H](OCOc2ccccc2)COC(=O)N1[C@H](C)c1ccccc1
- TGI (SK-MEL-2 melanoma): 33.3 µM
- TGI (U251 CNS): 42.3 µM
- TGI (OVCAR-5 ovarian): 43.6 µM
- TGI (KM12 colon): 33.5 µM
- TGI (UACC-257 melanoma): 29.5 µM
- TGI (HT29 colon): > 59 µM
- TGI (HCT-116 colon): 20.8 µM
- TGI (HOP-62 NSCLC): 29.8 µM
- TGI (RPMI-8226 leukemia): 60.1 µM
- TGI (HOP-92 NSCLC): 54 µM
- TGI (NCI/ADR-RES ovarian): > 66.1 µM
- TGI (NCI-H226 lung): > 100 µM
- TGI (CAKI-1 renal): 30.5 µM
- TGI (SN12C renal): 21.9 µM
- TGI (SNB-19 CNS): > 55 µM
- TGI (SF-295 CNS): 50.6 µM
- TGI (MCF7 breast): 26.7 µM
- TGI (SK-MEL-28 melanoma): 71.1 µM
- TGI (NCI-H23 lung): > 58.2 µM
- TGI (OVCAR-4 ovarian): 43.9 µM

SMILES: CCCCCCCCCCCCCCCCCCN(C)C(COC)COP(=O)([O-])OCC[N+](C)(C)C (stereo not given)
- TGI (SK-MEL-2 melanoma): 35.6 µM
- TGI (U251 CNS): 4.2 µM
- TGI (OVCAR-5 ovarian): 6.32 µM
- TGI (KM12 colon): 3.2 µM
- TGI (UACC-257 melanoma): 29.5 µM
- TGI (HT29 colon): 9.44 µM
- TGI (HCT-116 colon): 17 µM
- TGI (HOP-62 NSCLC): 12.1 µM
- TGI (RPMI-8226 leukemia): 5.85 µM
- TGI (HOP-92 NSCLC): 5.17 µM
- TGI (NCI/ADR-RES ovarian): > 58.3 µM
- TGI (NCI-H226 lung): 12.1 µM
- TGI (CAKI-1 renal): 15.7 µM
- TGI (SN12C renal): 19.5 µM
- TGI (SNB-19 CNS): 14.1 µM
- TGI (SF-295 CNS): 10.3 µM
- TGI (MCF7 breast): 23.7 µM
- TGI (SK-MEL-28 melanoma): 36.7 µM
- TGI (NCI-H23 lung): 23.9 µM
- TGI (OVCAR-4 ovarian): 12.3 µM

SMILES: CCC(C)(NC(=O)C(C)NC(=O)OC(C)(C)C)C(=O)NC(C)C(=O)NC(C)(CC)C(=O)ON=C1CCCC1 (stereo not given) (Boc-A[Iva]A[Iva]-X52; configuration not given here)
- TGI (SK-MEL-2 melanoma): > 100 µM
- TGI (U251 CNS): > 100 µM
- TGI (OVCAR-5 ovarian): > 100 µM
- TGI (KM12 colon): > 100 µM
- TGI (HCT-116 colon): > 100 µM
- TGI (HOP-62 NSCLC): > 100 µM
- TGI (RPMI-8226 leukemia): > 100 µM
- TGI (HOP-92 NSCLC): > 100 µM
- TGI (NCI/ADR-RES ovarian): > 100 µM
- TGI (NCI-H226 lung): > 100 µM
- TGI (CAKI-1 renal): > 100 µM
- TGI (SN12C renal): > 100 µM
- TGI (SNB-19 CNS): > 100 µM
- TGI (SF-295 CNS): > 100 µM
- TGI (MCF7 breast): > 100 µM
- TGI (SK-MEL-28 melanoma): > 100 µM
- TGI (NCI-H23 lung): > 100 µM
